Experimental data published in PubChem BioAssay (NCI).
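Here, GI50 denotes the concentration required for 50% inhibition of growth. TGI denotes the concentration required for complete inhibition of growth.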

Tests used:
Assay in all cases: inhibition of tumour cell growth, NCI panel, 384-well format
COLO 205 colon = tested on: COLO 205 colon
SK-OV-3 ovarian = tested on: SK-OV-3 ovarian
T-47D breast = tested on: T-47D breast
HOP-62 NSCLC = tested on: HOP-62 NSCLC
NCI-H322M lung = tested on: NCI-H322M lung
UACC-62 melanoma = tested on: UACC-62 melanoma
RXF 393 renal = tested on: RXF 393 renal
OVCAR-5 ovarian = tested on: OVCAR-5 ovarian
SK-MEL-2 melanoma = tested on: SK-MEL-2 melanoma
SF-268 CNS = tested on: SF-268 CNS
NCI/ADR-RES ovarian = tested on: NCI/ADR-RES ovarian
SR leukemia = tested on: SR leukemia
786-0 renal = tested on: 786-0 renal
HCT-116 colon = tested on: HCT-116 colon
NCI-H23 lung = tested on: NCI-H23 lung
MDA-MB-468 breast = tested on: MDA-MB-468 breast
HOP-92 NSCLC = tested on: HOP-92 NSCLC
A549 NSCLC = tested on: A549 NSCLC
UO-31 renal = tested on: UO-31 renal
HCT-15 colon = tested on: HCT-15 colon
OVCAR-4 ovarian = tested on: OVCAR-4 ovarian
NCI-H226 lung = tested on: NCI-H226 lung
MALME-3M melanoma = tested on: MALME-3M melanoma
NCI-H460 NSCLC = tested on: NCI-H460 NSCLC
CAKI-1 renal = tested on: CAKI-1 renal
SK-MEL-5 melanoma = tested on: SK-MEL-5 melanoma
LOX IMVI melanoma = tested on: LOX IMVI melanoma
SW-620 colon = tested on: SW-620 colon
UACC-257 melanoma = tested on: UACC-257 melanoma
NCI-H522 lung = tested on: NCI-H522 lung
PC-3 prostate = tested on: PC-3 prostate
U251 glioblastoma = tested on: U251 glioblastoma
SF-295 CNS = tested on: SF-295 CNS
BT-549 breast = tested on: BT-549 breast
HL-60(TB) leukemia = tested on: HL-60(TB) leukemia
MDA-MB-231 breast = tested on: MDA-MB-231 breast
MDA-MB-435 melanoma = tested on: MDA-MB-435 melanoma
OVCAR-8 ovarian = tested on: OVCAR-8 ovarian
SN12C renal = tested on: SN12C renal
MCF7 breast = tested on: MCF7 breast
ACHN renal = tested on: ACHN renal
OVCAR-3 ovarian = tested on: OVCAR-3 ovarian
KM12 colon = tested on: KM12 colon
DU-145 prostate = tested on: DU-145 prostate
SF-539 CNS = tested on: SF-539 CNS
M14 melanoma = tested on: M14 melanoma
CCRF-CEM leukemia = tested on: CCRF-CEM leukemia
SK-MEL-28 melanoma = tested on: SK-MEL-28 melanoma
RPMI-8226 leukemia = tested on: RPMI-8226 leukemia
SNB-19 CNS = tested on: SNB-19 CNS
A498 renal = tested on: A498 renal
HCC-2998 colon = tested on: HCC-2998 colon
MOLT-4 leukemia = tested on: MOLT-4 leukemia
IGROV1 ovarian = tested on: IGROV1 ovarian
HT29 colon = tested on: HT29 colon
TK-10 renal = tested on: TK-10 renal

Cc1ncc(NC(=O)c2ccc(CN3CCN(C)CC3)c(C(F)(F)F)c2)cc1Nc1nccc(-c2cccnc2)n1
GI50 (COLO 205 colon): 1.27 µM
TGI (COLO 205 colon): 14.5 µM
GI50 (SK-OV-3 ovarian): 1.94 µM
TGI (SK-OV-3 ovarian): 3.89 µM
GI50 (T-47D breast): 12.1 µM
TGI (T-47D breast): 24.6 µM
GI50 (HOP-62 NSCLC): 13.8 µM
TGI (HOP-62 NSCLC): 26.8 µM
GI50 (NCI-H322M lung): 10.9 µM
TGI (NCI-H322M lung): 22.9 µM
GI50 (UACC-62 melanoma): 1.35 µM
TGI (UACC-62 melanoma): 13.8 µM
GI50 (RXF 393 renal): 1.66 µM
TGI (RXF 393 renal): 3.59 µM
GI50 (OVCAR-5 ovarian): 14.4 µM
TGI (OVCAR-5 ovarian): 27.6 µM
GI50 (SK-MEL-2 melanoma): 2.46 µM
TGI (SK-MEL-2 melanoma): 8.05 µM
GI50 (SF-268 CNS): 10.4 µM
TGI (SF-268 CNS): 22.2 µM
GI50 (NCI/ADR-RES ovarian): 10.6 µM
TGI (NCI/ADR-RES ovarian): 22.4 µM
GI50 (SR leukemia): 1.66 µM
TGI (SR leukemia): 3.02 µM
GI50 (786-0 renal): 1.51 µM
TGI (786-0 renal): 2.89 µM
GI50 (HCT-116 colon): 1.18 µM
TGI (HCT-116 colon): 2.43 µM
GI50 (NCI-H23 lung): 13.7 µM
TGI (NCI-H23 lung): 26.7 µM
GI50 (MDA-MB-468 breast): 10.8 µM
TGI (MDA-MB-468 breast): 22.8 µM
GI50 (HOP-92 NSCLC): 6.68 µM
TGI (HOP-92 NSCLC): 19.4 µM
GI50 (A549 NSCLC): 2.54 µM
TGI (A549 NSCLC): 8.6 µM
GI50 (UO-31 renal): 11.4 µM
TGI (UO-31 renal): 23.5 µM
GI50 (HCT-15 colon): 1.82 µM
TGI (HCT-15 colon): 3.6 µM
GI50 (OVCAR-4 ovarian): 2.63 µM
TGI (OVCAR-4 ovarian): 14.1 µM
GI50 (NCI-H226 lung): 12.4 µM
TGI (NCI-H226 lung): 25 µM
GI50 (MALME-3M melanoma): 0.289 µM
TGI (MALME-3M melanoma): 1.46 µM
GI50 (NCI-H460 NSCLC): 1.65 µM
TGI (NCI-H460 NSCLC): 3.26 µM
GI50 (CAKI-1 renal): 7.3 µM
TGI (CAKI-1 renal): 19.4 µM
GI50 (SK-MEL-5 melanoma): 1.44 µM
TGI (SK-MEL-5 melanoma): 16.4 µM
GI50 (LOX IMVI melanoma): 1.95 µM
TGI (LOX IMVI melanoma): 3.37 µM
GI50 (SW-620 colon): 1.84 µM
TGI (SW-620 colon): 3.29 µM
GI50 (UACC-257 melanoma): 1.06 µM
TGI (UACC-257 melanoma): 2.24 µM
GI50 (NCI-H522 lung): 3.05 µM
TGI (NCI-H522 lung): 17.8 µM
GI50 (PC-3 prostate): 13.6 µM
TGI (PC-3 prostate): 26.6 µM
GI50 (U251 glioblastoma): 1.82 µM
TGI (U251 glioblastoma): 3.31 µM
GI50 (SF-295 CNS): 19.5 µM
TGI (SF-295 CNS): 33.7 µM
GI50 (BT-549 breast): 2.17 µM
TGI (BT-549 breast): 3.69 µM
GI50 (HL-60(TB) leukemia): 0.956 µM
TGI (HL-60(TB) leukemia): 2.12 µM
GI50 (MDA-MB-231 breast): 1.55 µM
TGI (MDA-MB-231 breast): 2.98 µM
GI50 (MDA-MB-435 melanoma): 4.56 µM
TGI (MDA-MB-435 melanoma): 19.2 µM
GI50 (OVCAR-8 ovarian): 11.3 µM
TGI (OVCAR-8 ovarian): 23.5 µM
GI50 (SN12C renal): 17.4 µM
TGI (SN12C renal): 31.2 µM
GI50 (MCF7 breast): 1.43 µM
TGI (MCF7 breast): 2.79 µM
GI50 (ACHN renal): 12.6 µM
TGI (ACHN renal): 25.2 µM
GI50 (OVCAR-3 ovarian): 1.74 µM
TGI (OVCAR-3 ovarian): 3.31 µM
GI50 (KM12 colon): 1.57 µM
TGI (KM12 colon): 3.11 µM
GI50 (DU-145 prostate): 15.4 µM
TGI (DU-145 prostate): 28.8 µM
GI50 (SF-539 CNS): 1.32 µM
TGI (SF-539 CNS): 2.6 µM
GI50 (M14 melanoma): 0.798 µM
TGI (M14 melanoma): 12.3 µM
GI50 (CCRF-CEM leukemia): 1.61 µM
TGI (CCRF-CEM leukemia): 2.96 µM
GI50 (SK-MEL-28 melanoma): 1.78 µM
TGI (SK-MEL-28 melanoma): 14.9 µM
GI50 (RPMI-8226 leukemia): 0.745 µM
TGI (RPMI-8226 leukemia): 2 µM
GI50 (SNB-19 CNS): 15.7 µM
TGI (SNB-19 CNS): 29.2 µM
GI50 (A498 renal): 1.89 µM
TGI (A498 renal): 3.55 µM
GI50 (HCC-2998 colon): 3.72 µM
TGI (HCC-2998 colon): 17.6 µM
GI50 (MOLT-4 leukemia): 1.28 µM
TGI (MOLT-4 leukemia): 2.54 µM
GI50 (IGROV1 ovarian): 13.2 µM
TGI (IGROV1 ovarian): 26 µM
GI50 (HT29 colon): 1.04 µM
TGI (HT29 colon): 2.22 µM
GI50 (TK-10 renal): 12.9 µM
TGI (TK-10 renal): 25.5 µM
